Data as given in PubChem BioAssay (NCI).
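GI50: concentration for 50% inhibition of growth. TGI marks complete inhibition of growth.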

Legend:
Assay in all cases: NCI-60 cell line screen, 384-well format
[1] = system: 786-0 renal
[2] = system: A498 renal
[3] = system: ACHN renal
[4] = system: BT-549 breast
[5] = system: CAKI-1 renal
[6] = system: CCRF-CEM leukemia
[7] = system: COLO 205 colon
[8] = system: DU-145 prostate
[9] = system: EKVX NSCLC
[10] = system: HCC-2998 colon
[11] = system: HCT-116 colon
[12] = system: HCT-15 colon
[13] = system: HOP-62 NSCLC
[14] = system: HOP-92 NSCLC
[15] = system: HS 578T breast
[16] = system: HT29 colon
[17] = system: IGROV1 ovarian
[18] = system: K-562 leukemia
[19] = system: KM12 colon
[20] = system: LOX IMVI melanoma
[21] = system: M14 melanoma
[22] = system: MALME-3M melanoma
[23] = system: MCF7 breast
[24] = system: MDA-MB-231 breast
[25] = system: MDA-MB-435 melanoma
[26] = system: MDA-MB-468 breast
[27] = system: MOLT-4 leukemia
[28] = system: NCI-H226 lung
[29] = system: NCI-H23 lung
[30] = system: NCI-H322M lung
[31] = system: NCI-H460 NSCLC
[32] = system: NCI/ADR-RES ovarian
[33] = system: OVCAR-3 ovarian
[34] = system: OVCAR-4 ovarian
[35] = system: OVCAR-5 ovarian
[36] = system: OVCAR-8 ovarian
[37] = system: PC-3 prostate
[38] = system: RPMI-8226 leukemia
[39] = system: RXF 393 renal
[40] = system: SF-268 CNS
[41] = system: SF-295 CNS
[42] = system: SF-539 CNS
[43] = system: SK-MEL-28 melanoma
[44] = system: SK-MEL-5 melanoma
[45] = system: SK-OV-3 ovarian
[46] = system: SN12C renal
[47] = system: SNB-19 CNS
[48] = system: SNB-75 CNS
[49] = system: SW-620 colon
[50] = system: TK-10 renal
[51] = system: U251 glioblastoma
[52] = system: UACC-257 melanoma
[53] = system: UACC-62 melanoma
[54] = system: UO-31 renal

SMILES: CCN(CCO)CCCOc1ccc2c(Nc3cc(CC(=O)Nc4cccc(F)c4)[nH]n3)ncnc2c1
- GI50 [1]: 16 µM
- TGI [1]: 31.7 µM
- GI50 [2]: 29.8 µM
- TGI [2]: > 100 µM
- GI50 [3]: > 100 µM
- TGI [3]: > 100 µM
- GI50 [4]: 12 µM
- TGI [4]: 24.4 µM
- GI50 [5]: 11.7 µM
- TGI [5]: 26.4 µM
- GI50 [6]: < 0.01 µM
- GI50 [7]: 0.0236 µM
- TGI [7]: 0.0915 µM
- GI50 [8]: 27.7 µM
- TGI [8]: 92 µM
- GI50 [9]: 14 µM
- TGI [9]: 41.7 µM
- GI50 [10]: 12.8 µM
- TGI [10]: 25.4 µM
- GI50 [11]: 8.43 µM
- TGI [11]: 21.4 µM
- GI50 [12]: > 100 µM
- TGI [12]: > 100 µM
- GI50 [13]: 11.7 µM
- TGI [13]: 24.1 µM
- GI50 [14]: 8.99 µM
- TGI [14]: 21.2 µM
- GI50 [15]: 0.0205 µM
- TGI [15]: 18.5 µM
- GI50 [16]: 13.2 µM
- TGI [16]: 26.2 µM
- GI50 [17]: 11.6 µM
- TGI [17]: 24.9 µM
- GI50 [18]: 10.1 µM
- TGI [18]: 22.7 µM
- GI50 [19]: 3.46 µM
- TGI [19]: 14.6 µM
- GI50 [20]: 10.2 µM
- TGI [20]: 21.8 µM
- GI50 [21]: 13.3 µM
- TGI [21]: 26.6 µM
- GI50 [22]: 11.3 µM
- TGI [22]: 23.4 µM
- GI50 [23]: 2.69 µM
- TGI [23]: 18.2 µM
- GI50 [24]: 12 µM
- TGI [24]: 24.5 µM
- GI50 [25]: 13.4 µM
- TGI [25]: 26.3 µM
- GI50 [26]: 0.0155 µM
- TGI [26]: 4.03 µM
- GI50 [27]: < 0.01 µM
- GI50 [28]: 14.4 µM
- TGI [28]: 36.4 µM
- GI50 [29]: 11.8 µM
- TGI [29]: 25.1 µM
- GI50 [30]: 16.2 µM
- TGI [30]: 38.5 µM
- GI50 [31]: 0.0403 µM
- TGI [31]: 16.9 µM
- GI50 [32]: > 100 µM
- TGI [32]: > 100 µM
- GI50 [33]: 1.63 µM
- TGI [33]: 14.7 µM
- GI50 [34]: 12.2 µM
- TGI [34]: 26.5 µM
- GI50 [35]: 18.1 µM
- TGI [35]: 51.2 µM
- GI50 [36]: 14.7 µM
- TGI [36]: 28.9 µM
- GI50 [37]: 15.1 µM
- TGI [37]: 28.6 µM
- GI50 [38]: 7.83 µM
- TGI [38]: 21.2 µM
- GI50 [39]: 0.0465 µM
- TGI [39]: 20.6 µM
- GI50 [40]: < 0.01 µM
- TGI [40]: 4.6 µM
- GI50 [41]: 13.8 µM
- TGI [41]: 29.2 µM
- GI50 [42]: 2.31 µM
- TGI [42]: 19.1 µM
- GI50 [43]: 15.5 µM
- TGI [43]: 29 µM
- GI50 [44]: 11.4 µM
- TGI [44]: 24.8 µM
- GI50 [45]: 9.32 µM
- TGI [45]: 21.4 µM
- GI50 [46]: 10.8 µM
- TGI [46]: 23.4 µM
- GI50 [47]: 11.7 µM
- TGI [47]: 24.1 µM
- GI50 [48]: 15.1 µM
- TGI [48]: 28.4 µM
- GI50 [49]: 13.7 µM
- TGI [49]: 28.9 µM
- GI50 [50]: 32.5 µM
- TGI [50]: > 100 µM
- GI50 [51]: 12 µM
- TGI [51]: 24.4 µM
- GI50 [52]: 14.7 µM
- TGI [52]: 27.9 µM
- GI50 [53]: 13.9 µM
- TGI [53]: 26.9 µM
- GI50 [54]: > 100 µM
- TGI [54]: > 100 µM
